Assay results published in patent US8569336B2, “Compounds for the treatment of inflammatory disorders” (priority 2008, dated 2013).
Read-outs that look alike come from different tables or passages of the source.

Tests used:
[1] = molecular target: T1, purified catalytic domain of recombinant human TACE (rhTACEc) (Homo sapiens, UniProt P78536, N452Q/S266A); assay: TACE kinetic assay: cleavage of internally quenched peptide substrate TNF-FRET 2 (Ki); type: biochemical; details: TNF-FRET 2 substrate
T1 construct: 6xHis (C); made in house; host or cells: baculovirus/Hi5 insect cells
T1 sequence (P78536 215-477 S266A/N452Q): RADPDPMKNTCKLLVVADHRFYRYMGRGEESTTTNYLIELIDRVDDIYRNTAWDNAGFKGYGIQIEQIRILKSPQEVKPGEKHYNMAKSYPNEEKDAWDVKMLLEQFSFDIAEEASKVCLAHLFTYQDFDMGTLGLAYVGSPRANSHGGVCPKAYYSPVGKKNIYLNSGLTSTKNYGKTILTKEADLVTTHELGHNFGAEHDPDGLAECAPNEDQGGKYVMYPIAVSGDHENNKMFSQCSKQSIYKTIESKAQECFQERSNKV

[2] = system: TNF-α production from human whole blood; assay: Inhibition of TNF-α production from human whole blood (hWBA), LPS stimulated, ELISA; type: cell-based; details: Homo sapiens, TNF-α by ELISA, read-out: hWBA (IC50)
[3] = Area under the curve determinations of plasma levels in rats (rrAUC), oral 10 mg/kg; type: in vivo; details: for AUC: rat, read-out: RR AUC (rapid rat AUC, rrAUC)
[4] = LPS-stimulated human whole blood
[5] = 3.5 h, human whole blood diluted 1:1, LPS stimulated, 3.5 h

Row | Compound | Ki ([1]; read-out: Ki) [nM] | IC50 [2, 4] [nM] | AUC ([3]; plasma 0.5-6 h) [µM·h] | RR AUC (rapid rat AUC, rrAUC) ([3]; plasma 0.5-6 h) [µM·h] | Ki ([1]; Ki) [nM] | IC50 [2, 5] [nM] | AUC ([3]; plasma 0.5-6 h post-dosing) [µM·h]
1 | COc1ccc2c(c1F)C(=O)N(C[C@@]1(c3cc4ncc(F)cc4o3)NC(=O)NC1=O)C2 [Compound 1311] | 1.18 | 297 | 14.6 |  |  |  | 
2 | COc1ccc2c(c1F)C(=O)N(C[C@@]1(c3cc4nc(C)c(F)cc4o3)NC(=O)NC1=O)C2 [Compound 1312] | 0.74 | 911 | 38.3 |  |  |  | 
3 | COc1ccc2c(c1F)C(=O)N(C[C@@]1(c3cc4cc(C5(C)NC(=O)NC5=O)c(F)cc4o3)NC(=O)NC1=O)C2 (stereo partly drawn) [Compound 1316] | 1.02 | 104 | 45.7 |  |  |  | 
4 | COc1ccc2c(c1F)C(=O)N(C[C@@]1(c3cc4nc(-c5ccc(N)nc5)c(F)cc4o3)NC(=O)NC1=O)C2 [Compound 1318] | 0.36 | 87 | 0.863 |  |  |  | 
5 | COc1ccc2c(c1F)C(=O)N(C[C@@]1(c3cc4nc(C5=CCNCC5)c(F)cc4o3)NC(=O)NC1=O)C2 [Compound 1320] |  | 55 | 0.101 |  | 0.37 |  | 
6 | COc1ccc2c(c1F)C(=O)N(C[C@@]1(c3cc4nc(Cl)c(F)cc4o3)NC(=O)NC1=O)C2 [Compound 1328] |  | 2680 | 5.61 |  | 0.49 |  | 
7 | COc1ccc2c(c1F)C(=O)N(C[C@@]1(c3cc4nc(N5CCN(C)C5=O)c(F)cc4o3)NC(=O)NC1=O)C2 [Compound 1329] | 0.59 | 234 | 0.226 |  |  |  | 
8 | COc1ccc2c(c1F)C(=O)N(C[C@@]1(c3cc4nc(N5CCNC5=O)c(F)cc4o3)NC(=O)NC1=O)C2 [Compound 1331] | 0.66 | 310 | 0.67 |  |  |  | 
9 | COc1ccc2c(c1)C(=O)N(C[C@@]1(c3cc4nc(N5CCCCC5=O)ccc4o3)NC(=O)NC1=O)C2 [Compound 1512] | 1.3 | 1550 | 0.303 |  |  |  | 
10 | COc1ccc2c(c1)C(=O)N(C[C@@]1(c3cc4nc(N5CCC[C@H]5CO)ccc4o3)NC(=O)NC1=O)C2 [Compound 1513] | 0.7 | 526 | 0.524 |  |  |  | 
11 | COc1ccc2c(c1)C(=O)N(C[C@@]1(c3cc4nc(N5CCCC(C(N)=O)C5)ccc4o3)NC(=O)NC1=O)C2 (stereo partly drawn) [Compound 1515] | 0.7 | 245 | 0.145 |  |  |  | 
12 | CCOC(=O)C1CCCN(c2ccc3oc([C@]4(CN5Cc6ccc(OC)cc6C5=O)NC(=O)NC4=O)cc3n2)C1 (stereo partly drawn) [Compound 1516] | 0.5 | 1740 | 0.041 |  |  |  | 
13 | COc1ccc2c(c1F)C(=O)N(C[C@@]1(c3cc4nc(-n5ccnc5)ccc4o3)NC(=O)NC1=O)C2 [Compound 1523] | 0.6 | 289 | 4.29 |  |  |  | 
14 | COc1ccc2c(c1)C(=O)N(C[C@@]1(c3cc4nc(-c5ccc(C#N)nc5)ccc4o3)NC(=O)NC1=O)C2 [Compound 1530] | 0.7 | 1610 |  | 0.536 |  |  | 
15 | COc1ccc2c(c1F)C(=O)N(C[C@@]1(c3cc4nc(-c5ccc(N)nc5)ccc4o3)NC(=O)NC1=O)C2 [Compound 1716] | 0.48 | 132 | 0.393 |  |  |  | 
16 | COc1ccc2c(c1F)C(=O)N(C[C@@]1(c3cc4nc(Nc5cncc(F)c5)ccc4o3)NC(=O)NC1=O)C2 [Compound 1733] | 0.71 | 454 | 0.904 |  |  |  | 
17 | COc1ccc2c(c1F)C(=O)N(C[C@@]1(c3cc4nc(Nc5ccc(-c6cn[nH]c6)cn5)ccc4o3)NC(=O)NC1=O)C2 [Compound 1734] | 1.92 | 289 | 0.068 |  |  |  | 
18 | COc1ccc2c(c1F)C(=O)N(C[C@@]1(c3cc4ncc(C(N)=O)cc4o3)NC(=O)NC1=O)C2 [Compound 1908] | 0.42 | 136 | 0.094 |  |  |  | 
19 | COc1ccc2c(c1F)C(=O)N(C[C@@]1(c3cc4ncc(C(=O)NC5CC5)cc4o3)NC(=O)NC1=O)C2 [Compound 1909] | 1.15 | 585 | 0.066 |  |  |  | 
20 | COc1ccc2c(c1F)C(=O)N(C[C@@]1(c3cc4nc(C)c(N5CCC5=O)cc4o3)NC(=O)NC1=O)C2 [Compound 1922] | 1.25 | 281 | 0.088 |  |  |  | 
21 | COc1ccc2c(c1)C(=O)N(C[C@@]1(c3cc4nc(C(N)=O)ccc4o3)NC(=O)NC1=O)C2 [Compound 1924] | 0.55 | 200 | 0.113 |  |  |  | 
22 | CNC(=O)c1ccc2oc([C@]3(CN4Cc5ccc(OC)cc5C4=O)NC(=O)NC3=O)cc2n1 [Compound 1925] | 0.86 | 280 |  | 1.07 |  |  | 
23 | COc1ccc2c(c1)C(=O)N(C[C@@]1(c3cc4nc(N)ccc4o3)NC(=O)NC1=O)C2 [Compound 1936] |  | 187 | 0.424 |  | 0.51 |  | 
24 | COc1ccc2c(c1)C(=O)N(C[C@@]1(c3cc4nc(NS(=O)(=O)C5CC5)ccc4o3)NC(=O)NC1=O)C2 [Compound 1938] | 0.58 | 518 | 0.015 |  |  |  | 
25 | COc1ccc2c(c1)C(=O)N(C[C@@]1(c3cc4nc(-c5cn[nH]c5)ccc4o3)NC(=O)NC1=O)C2 [Compound 2100] | 0.197 |  |  |  |  | 99.4 | 0.104
26 | COc1ccc2c(c1)C(=O)N(C[C@@]1(c3cc4nc(-c5ccc(N)nc5)ccc4o3)NC(=O)NC1=O)C2 [Compound 2102] |  |  |  |  | 0.328 | 164 | 0.092
27 | COc1ccc2c(c1)C(=O)N(C[C@@]1(c3cc4nc(-c5cnn(C)c5)ccc4o3)NC(=O)NC1=O)C2 [Compound 2104] |  |  |  |  | 0.191 | 285 | 0.369

Continued, in another order:

Row | Ki ([1]; read-out: Ki) [nM] | IC50 [2, 4] [nM] | AUC ([3]; plasma 0.5-6 h) [µM·h] | RR AUC (rapid rat AUC, rrAUC) ([3]; plasma 0.5-6 h) [µM·h] | Compound | Ki ([1]; Ki) [nM] | IC50 [2, 5] [nM] | AUC ([3]; plasma 0.5-6 h post-dosing) [µM·h]
28 | 1 | 175 | 0.009 |  | CCN1CCC(c2nc3cc([C@]4(CN5Cc6ccc(OC)c(F)c6C5=O)NC(=O)NC4=O)oc3cc2F)CC1 [Compound 1325] |  |  | 
29 | 0.5 | 131 | 0.667 |  | COc1ccc2c(c1F)C(=O)N(C[C@@]1(c3cc4nc(N5C[C@@H](O)CC5=O)ccc4o3)NC(=O)NC1=O)C2 [Compound 1501] |  |  | 
30 | 0.4 | 263 | 5.19 |  | COc1ccc2c(c1F)C(=O)N(C[C@@]1(c3cc4nc(N5C(=O)CCC5C)ccc4o3)NC(=O)NC1=O)C2 (stereo partly drawn) [Compound 1510] |  |  | 
31 | 0.4 | 93.3 | 4.01 |  | COc1ccc2c(c1F)C(=O)N(C[C@@]1(c3cc4nc(N5C[C@H](O)CC5=O)ccc4o3)NC(=O)NC1=O)C2 [Compound 1511] |  |  | 
32 | 0.3 | 211 | 4.63 |  | COc1ccc2c(c1F)C(=O)N(C[C@@]1(c3cc4nc(N5CCC5=O)ccc4o3)NC(=O)NC1=O)C2 [Compound 1522] |  |  | 
33 | 0.3 | 557 | 8 |  | COc1ccc2c(c1F)C(=O)N(C[C@@]1(c3cc4nc(-n5cccn5)ccc4o3)NC(=O)NC1=O)C2 [Compound 1524] |  |  | 
34 | 0.82 | 137 | 1.2 |  | CCN1CCN(c2ccc3oc([C@]4(CN5Cc6ccc(OC)c(F)c6C5=O)NC(=O)NC4=O)cc3n2)CC1 [Compound 1705] |  |  | 
35 | 0.5 | 224 | 0.273 |  | COc1ccc2c(c1F)C(=O)N(C[C@@]1(c3cc4nc(N5CCN(C(C)C)CC5)ccc4o3)NC(=O)NC1=O)C2 [Compound 1706] |  |  | 
36 | 0.5 | 235 | 0.65 |  | CCN1CCN(c2ccc3oc([C@]4(CN5Cc6ccc(OC)c(F)c6C5=O)NC(=O)NC4=O)cc3n2)CC1=O [Compound 1707] |  |  | 
37 | 0.7 | 131 | 0.623 |  | CCN1CCN(c2nc3cc([C@]4(CN5Cc6ccc(OC)c(F)c6C5=O)NC(=O)NC4=O)oc3cc2F)CC1 [Compound 1709] |  |  | 
38 | 0.5 | 113 | 5.09 |  | COc1ccc2c(c1F)C(=O)N(C[C@@]1(c3cc4nc(N5CCN(C6CC6)CC5)ccc4o3)NC(=O)NC1=O)C2 [Compound 1711] |  |  | 
39 | 2.79 | 480 | 0.199 |  | COc1ccc2c(c1F)C(=O)N(C[C@@]1(c3cc4nc(N5CCC(OC)(OC)CC5)ccc4o3)NC(=O)NC1=O)C2 [Compound 1715] |  |  | 
40 | 0.34 | 153 | 0.351 |  | COc1ccc2c(c1F)C(=O)N(C[C@@]1(c3cc4nc(N)ccc4o3)NC(=O)NC1=O)C2 [Compound 1910] |  |  | 
